Results: US12466812B2, “Pyridinyltriazine derivative having protein kinase inhibitory activity, and pharmaceutical composition for preventing, ameliorating, or treating cancer comprising same” (KOREA INSTITUTE OF SCIENCE AND TECHNOLOGY, priority 2019, dated 2025)
Blank lines part the entries; values can stand above or below the compound they belong to.

Assays:
FGFR3 = FGFR3 (Homo sapiens, UniProt P22607); details: J. Med. Chem. 2011, 54:7066-7083; cited from earlier work
[1] = test system: RT112 bladder cancer cell line; details: J. Med. Chem. 2011, 54:7066-7083; cited from earlier work
[2] = test system: AN3-CA, a uterine cancer cell line; assay: Inhibitory activity against cancer cell proliferation (Experimental Example 2); assay type: cell-based; details: Homo sapiens, Table 2
FGFR2 mutant (N549H) = FGFR2 mutant (N549H) (Homo sapiens, UniProt P21802, N549H); assay: Pan-FGFR mutant enzymatic activity; assay type: biochemical; details: mutant enzyme
Chain of FGFR2 mutant (N549H) (P21802 22-821 N549H): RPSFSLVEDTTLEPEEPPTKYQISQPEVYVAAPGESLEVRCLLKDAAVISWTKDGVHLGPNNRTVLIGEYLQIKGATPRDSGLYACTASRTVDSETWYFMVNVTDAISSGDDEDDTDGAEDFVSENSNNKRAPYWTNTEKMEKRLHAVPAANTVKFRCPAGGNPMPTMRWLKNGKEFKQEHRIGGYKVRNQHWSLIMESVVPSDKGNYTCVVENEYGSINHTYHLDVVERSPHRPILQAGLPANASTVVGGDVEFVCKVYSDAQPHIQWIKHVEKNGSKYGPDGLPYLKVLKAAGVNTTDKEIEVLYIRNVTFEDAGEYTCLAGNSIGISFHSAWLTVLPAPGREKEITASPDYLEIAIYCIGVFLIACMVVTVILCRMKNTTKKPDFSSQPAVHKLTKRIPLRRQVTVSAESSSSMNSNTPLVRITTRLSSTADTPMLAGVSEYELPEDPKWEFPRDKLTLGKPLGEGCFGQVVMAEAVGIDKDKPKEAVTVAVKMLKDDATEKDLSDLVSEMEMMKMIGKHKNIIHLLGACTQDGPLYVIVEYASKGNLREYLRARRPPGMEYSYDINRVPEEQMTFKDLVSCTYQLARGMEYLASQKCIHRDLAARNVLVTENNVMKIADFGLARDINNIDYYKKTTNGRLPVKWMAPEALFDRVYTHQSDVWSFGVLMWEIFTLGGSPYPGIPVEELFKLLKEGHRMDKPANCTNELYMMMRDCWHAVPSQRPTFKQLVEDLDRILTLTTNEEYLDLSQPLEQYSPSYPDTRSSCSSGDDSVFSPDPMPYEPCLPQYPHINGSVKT
Description: (§1) The inhibitory activity against pan-FGFR mutants of the compounds synthesized in Examples 1, 8, 13, 22, and 24 was measured, the inhibitory activity on each of enzymatic activity and cellular activity was evaluated, and the results are shown in Tables 3 and 4 below.

FGFR2 mutant (V564F) = FGFR2 mutant (V564F) (Homo sapiens, UniProt P21802, V564F); assay: Pan-FGFR mutant enzymatic activity; assay type: biochemical; details: mutant enzyme
Chain of FGFR2 mutant (V564F) (P21802 22-821 V564F): as the sequence (P21802 22-821 N549H) above, with H528N, V543F counted along it
Description: as §1

FGFR3 mutant (K650E) = FGFR3 mutant (K650E) (Homo sapiens, UniProt P22607, K650E); assay: Pan-FGFR mutant enzymatic activity; assay type: biochemical; details: mutant enzyme
Chain of FGFR3 mutant (K650E) (P22607 23-806 K650E): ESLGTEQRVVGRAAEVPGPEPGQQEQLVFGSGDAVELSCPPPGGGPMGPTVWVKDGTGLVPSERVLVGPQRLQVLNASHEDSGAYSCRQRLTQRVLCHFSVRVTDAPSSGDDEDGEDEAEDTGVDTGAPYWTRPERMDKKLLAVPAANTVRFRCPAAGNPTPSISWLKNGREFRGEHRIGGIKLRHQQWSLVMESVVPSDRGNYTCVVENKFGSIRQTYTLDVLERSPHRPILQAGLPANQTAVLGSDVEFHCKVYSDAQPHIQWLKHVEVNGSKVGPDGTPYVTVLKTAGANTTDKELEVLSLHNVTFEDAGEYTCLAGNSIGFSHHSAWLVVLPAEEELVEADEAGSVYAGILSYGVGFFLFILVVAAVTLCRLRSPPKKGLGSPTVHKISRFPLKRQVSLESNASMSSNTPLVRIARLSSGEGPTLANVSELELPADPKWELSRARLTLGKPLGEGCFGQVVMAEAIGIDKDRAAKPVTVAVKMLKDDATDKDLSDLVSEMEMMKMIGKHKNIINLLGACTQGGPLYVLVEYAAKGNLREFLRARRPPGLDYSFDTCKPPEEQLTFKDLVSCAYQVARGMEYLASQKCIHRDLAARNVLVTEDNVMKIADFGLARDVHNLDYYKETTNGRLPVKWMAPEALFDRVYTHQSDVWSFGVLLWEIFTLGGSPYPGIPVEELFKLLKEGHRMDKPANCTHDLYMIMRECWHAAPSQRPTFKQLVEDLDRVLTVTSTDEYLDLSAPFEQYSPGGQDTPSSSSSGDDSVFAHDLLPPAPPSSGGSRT
Description: as §1

FGFR3 mutant (K650M) = FGFR3 mutant (K650M) (Homo sapiens, UniProt P22607, K650M); assay: Pan-FGFR mutant enzymatic activity; assay type: biochemical; details: mutant enzyme
Chain of FGFR3 mutant (K650M) (P22607 23-806 K650M): as the sequence (P22607 23-806 K650E) above, with E628M counted along it
Description: as §1

FGFR3 mutant (V555M) = FGFR3 mutant (V555M) (Homo sapiens, UniProt P22607, V555M); assay: Pan-FGFR mutant enzymatic activity; assay type: biochemical; details: mutant enzyme
Chain of FGFR3 mutant (V555M) (P22607 23-806 V555M): as the sequence (P22607 23-806 K650E) above, with V533M, E628K counted along it
Description: as §1

AN3-CA = assay: Pan-FGFR mutant cellular activity; assay type: cell-based; details: Homo sapiens, mutant cell, Table 4, read-out: GI50, AN3-CA (breast cancer cell line)
Description: as §1

[3] = test system: J82 (bladder cancer cell line); assay: Pan-FGFR mutant cellular activity; assay type: cell-based; details: Table 4
Description: as §1

[4] = test system: KMS-11 (myeloma cell line); assay: Pan-FGFR mutant cellular activity; assay type: cell-based; details: Homo sapiens, Table 4
Description: as §1

[5] = test system: UMUC3 (bladder cancer cell line); assay: Pan-FGFR mutant cellular activity; assay type: cell-based; details: Homo sapiens, Table 4
Description: as §1

CYP1A2 = target: T1, CYP1A2 (Homo sapiens, UniProt P05177); assay: Inhibitory activity against CYP metabolic enzyme; assay type: in vitro ADME
T1 sequence (P05177 1-516): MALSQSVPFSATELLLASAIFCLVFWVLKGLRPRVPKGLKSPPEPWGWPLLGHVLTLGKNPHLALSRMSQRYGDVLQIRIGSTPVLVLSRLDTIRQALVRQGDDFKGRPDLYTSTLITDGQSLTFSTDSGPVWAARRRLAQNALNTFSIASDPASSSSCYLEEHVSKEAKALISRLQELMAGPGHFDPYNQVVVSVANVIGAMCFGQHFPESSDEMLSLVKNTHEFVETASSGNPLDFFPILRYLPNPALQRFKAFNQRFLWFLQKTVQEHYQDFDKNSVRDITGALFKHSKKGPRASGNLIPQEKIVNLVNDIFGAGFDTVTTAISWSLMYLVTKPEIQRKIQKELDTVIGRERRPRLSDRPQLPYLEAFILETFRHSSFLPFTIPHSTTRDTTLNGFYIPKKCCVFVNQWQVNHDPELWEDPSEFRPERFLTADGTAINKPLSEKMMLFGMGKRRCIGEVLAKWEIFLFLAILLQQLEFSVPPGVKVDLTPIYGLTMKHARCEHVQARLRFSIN
Description: (§2) In order to determine whether or not there is a possibility that the compounds synthesized in Examples 1, 22, and 24 of the present invention can cause side effects of drug interaction, the rate (%) of inhibition against 5 major metabolic enzymes (CYP1A2, CYP2C9, CYP2C19, CYP2D6, and CYP3A4) among CYPs (cytochrome P450), which are enzymes involved in oxidative metabolism of drugs, was measured. […] That is, it can be seen that the compound of the present invention has a low possibility of causing side effects of drug interaction.

CYP2C19 = CYP2C19 (Homo sapiens, UniProt P33261); assay: Inhibitory activity against CYP metabolic enzyme; assay type: in vitro ADME
Chain of CYP2C19 (P33261 whole entry): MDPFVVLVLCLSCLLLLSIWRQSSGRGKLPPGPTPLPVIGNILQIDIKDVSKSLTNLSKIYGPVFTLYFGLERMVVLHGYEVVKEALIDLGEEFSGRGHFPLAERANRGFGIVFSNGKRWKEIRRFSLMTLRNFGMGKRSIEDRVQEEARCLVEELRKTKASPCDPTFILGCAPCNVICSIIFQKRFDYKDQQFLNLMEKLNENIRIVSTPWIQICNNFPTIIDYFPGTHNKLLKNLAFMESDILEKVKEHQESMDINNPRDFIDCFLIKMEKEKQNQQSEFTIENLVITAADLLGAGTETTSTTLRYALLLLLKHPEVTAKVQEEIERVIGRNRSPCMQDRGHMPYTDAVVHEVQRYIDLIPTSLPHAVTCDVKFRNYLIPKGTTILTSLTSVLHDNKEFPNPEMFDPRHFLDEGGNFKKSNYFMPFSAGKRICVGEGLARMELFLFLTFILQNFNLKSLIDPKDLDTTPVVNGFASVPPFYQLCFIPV
Description: as §2

CYP2C9 = CYP2C9 (Homo sapiens, UniProt P11712); assay: Inhibitory activity against CYP metabolic enzyme; assay type: in vitro ADME
Chain of CYP2C9 (P11712 whole entry): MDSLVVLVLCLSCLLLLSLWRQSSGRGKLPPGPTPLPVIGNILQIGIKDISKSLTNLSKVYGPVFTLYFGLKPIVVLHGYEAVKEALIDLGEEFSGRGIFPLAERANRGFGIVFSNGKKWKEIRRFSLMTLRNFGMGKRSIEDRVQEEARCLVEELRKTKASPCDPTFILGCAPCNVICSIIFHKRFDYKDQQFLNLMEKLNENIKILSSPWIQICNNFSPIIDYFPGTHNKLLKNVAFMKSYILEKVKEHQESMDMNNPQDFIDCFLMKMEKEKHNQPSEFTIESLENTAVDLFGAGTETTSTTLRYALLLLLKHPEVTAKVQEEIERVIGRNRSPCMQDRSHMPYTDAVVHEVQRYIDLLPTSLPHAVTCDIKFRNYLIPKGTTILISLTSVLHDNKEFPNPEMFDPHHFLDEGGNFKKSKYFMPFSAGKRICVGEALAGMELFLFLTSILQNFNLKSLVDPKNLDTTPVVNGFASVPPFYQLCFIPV
Description: as §2

CYP2D6 = CYP2D6 (Homo sapiens, UniProt P10635); assay: Inhibitory activity against CYP metabolic enzyme; assay type: in vitro ADME
Chain of CYP2D6 (P10635 whole entry): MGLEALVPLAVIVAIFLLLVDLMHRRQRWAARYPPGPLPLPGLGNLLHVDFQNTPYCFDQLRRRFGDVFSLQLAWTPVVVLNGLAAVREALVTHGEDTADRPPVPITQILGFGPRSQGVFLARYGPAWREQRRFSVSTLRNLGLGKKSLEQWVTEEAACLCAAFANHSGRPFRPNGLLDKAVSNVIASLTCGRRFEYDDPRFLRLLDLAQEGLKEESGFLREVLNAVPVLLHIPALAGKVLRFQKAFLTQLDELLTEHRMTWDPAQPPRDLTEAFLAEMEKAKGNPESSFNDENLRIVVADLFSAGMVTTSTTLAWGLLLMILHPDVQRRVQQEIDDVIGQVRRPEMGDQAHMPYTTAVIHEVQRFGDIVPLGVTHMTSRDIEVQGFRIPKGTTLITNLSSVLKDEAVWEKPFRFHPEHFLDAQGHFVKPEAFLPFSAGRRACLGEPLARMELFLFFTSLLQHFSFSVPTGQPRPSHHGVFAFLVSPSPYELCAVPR
Description: as §2

CYP3A4 = CYP3A4 (Homo sapiens, UniProt P08684); assay: Inhibitory activity against CYP metabolic enzyme; assay type: in vitro ADME
Chain of CYP3A4 (P08684 whole entry): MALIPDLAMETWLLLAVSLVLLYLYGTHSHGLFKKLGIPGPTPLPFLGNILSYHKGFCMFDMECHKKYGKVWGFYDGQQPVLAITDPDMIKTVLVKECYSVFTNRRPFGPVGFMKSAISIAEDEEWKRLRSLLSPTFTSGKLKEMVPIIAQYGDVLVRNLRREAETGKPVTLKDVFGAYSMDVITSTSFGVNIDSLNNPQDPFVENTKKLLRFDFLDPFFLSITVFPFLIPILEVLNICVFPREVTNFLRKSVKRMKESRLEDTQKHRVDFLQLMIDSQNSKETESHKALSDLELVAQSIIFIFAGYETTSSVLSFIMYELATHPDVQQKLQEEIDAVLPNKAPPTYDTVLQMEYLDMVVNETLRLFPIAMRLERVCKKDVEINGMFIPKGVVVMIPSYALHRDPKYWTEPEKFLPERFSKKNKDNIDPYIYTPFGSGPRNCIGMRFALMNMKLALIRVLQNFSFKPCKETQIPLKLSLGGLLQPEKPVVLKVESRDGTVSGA
Description: as §2

Microsomal stability [6] = assay type: in vitro ADME; details: human liver microsomes, based on sample taken at 0 minutes
Microsomal stability [7] = assay type: in vitro ADME; details: dog liver microsomes, based on sample taken at 0 minutes
Microsomal stability [8] = assay type: in vitro ADME; details: rat liver microsomes, based on sample taken at 0 minutes
Microsomal stability [9] = assay type: in vitro ADME; details: mouse liver microsomes, based on sample taken at 0 minutes

Chain of FGFR3 (P22607 23-806): as the sequence (P22607 23-806 K650E) above, with E628K counted along it

Structure (SMILES): CCN1CCN(c2ccc(Nc3cc(N(C)C(=O)Nc4c(Cl)c(OC)cc(OC)c4Cl)ncn3)cc2)CC1 [3-(2,6-dichloro-3,5-dimethoxyphenyl)-1-6-[4-(4-ethyl-piperazin-1-yl)phenylamino]pyrimidine-4-yl-1-methyl urea]
inhibitory activity against FGFR3 (FGFR3): selective inhibitory activity | anticancer activity against the RT112 bladder cancer cell line [1]: effective anticancer activity

GI50 [2]: < 1000 nM | IC50 (FGFR2 mutant (N549H)): < 100 nM | IC50 (FGFR2 mutant (V564F)): 100 to 1000 nM | IC50 (FGFR3 mutant (K650E)): < 100 nM | IC50 (FGFR3 mutant (K650M)): < 100 nM | IC50 (FGFR3 mutant (V555M)): < 100 nM | GI50 [3]: < 1000 nM | GI50 [4]: < 1000 nM | GI50 [5]: < 1000 nM | rate (%) of inhibition, CYP1A2 (CYP1A2): 75.9% | rate (%) of inhibition, CYP2C19 (CYP2C19): 44.6% | rate (%) of inhibition, CYP2C9 (CYP2C9): 79.1% | rate (%) of inhibition, CYP2D6 (CYP2D6): 81.0% | rate (%) of inhibition, CYP3A4 (CYP3A4): 17.6% | remaining (%) after reaction with the microsome, Human (Microsomal stability [6]): 21.8% | remaining (%) after reaction with the microsome, Human (Microsomal stability [6]; listed as Compound No. 22): 21.8% | remaining (%) after reaction with the microsome, Dog (Microsomal stability [7]): 8.3% | remaining (%) after reaction with the microsome, Dog (Microsomal stability [7]; listed as Compound No. 22): 8.3% | remaining (%) after reaction with the microsome, Rat (Microsomal stability [8]): 7.7% | remaining (%) after reaction with the microsome, Rat (Microsomal stability [8]; listed as Compound No. 22): 7.7% | remaining (%) after reaction with the microsome, Mouse (Microsomal stability [9]): 11.5% | remaining (%) after reaction with the microsome, Mouse (Microsomal stability [9]; listed as Compound No. 22): 11.5%
Structure (SMILES): COc1cc(OC)c(Cl)c(Nc2ncccc2-c2ncnc(Nc3cnn(C4CCN(C(C)C)CC4)c3)n2)c1Cl [Example 22]
GI50 (AN3-CA): < 1000 nM
